Here are results for 4 compounds from patent publication US20090054526A1, “INHIBITORS OF ANOREXIC LIPID HYDROLYSIS FOR THE TREATMENT OF EATING DISORDERS” (priority 2005, published 2009).

The subject of test [1] is acylethanolamide hydrolyzing enzyme (FAAH and an enzyme different from FAAH) in rat intestinal homogenate. Kind of test: OEA and anandamide (acylethanolamide) hydrolysis in rat intestinal homogenate. Particulars: for inhibition of OEA hydrolysis: pH 7.0, 50 μM 3H-OEA, 20 min, inhibitor concentration not given ('same concentration'). In kind it is biochemical. How it is done:
Enzymatic hydrolysis of OEA is investigated in an assay containing 5-500 μg of intestinal protein incubated with 1-500 μM of ^3H-OEA ([1-^3H-ethanolamine]OEA and dilutions thereof with non-radioactive OEA to obtain a specific activity of 0.1-100,000 dpm/pmol) or ^3H-anandamide ([1−^3H-ethanolamine]anandamide and dilutions thereof with non-radioactive anandamide to obtain a specific activity of 0.1-100,000 dpm/pmol) in a total volume of 100-500 μl of 10-100 mM buffer (pH 3-11), initially utilizing 100 mM Tris-HCl (pH 8.0) containing 0-2 mM EDTA and 0-5 mg/ml of fatty acid-free bovine serum albumin with or without addition of D-erythro-MAPP (or a related compound; dissolved in 1-10 μl ethanol) in a final concentration of 0.0001-1000 μM (1-10 μl ethanol is added to control assays). Incubations are carried out at 37° C. for 0-120 min and samples are withdrawn at 2-3 time points. The reaction in a sample is terminated by addition of 200-1000 μl of chloroform:methanol (1:1 v/v) and cooling on ice, followed by 10 min centrifugation at low speed, where after 50-250 μl of the upper phase is extracted and the radio-labeled product ethanolamine formed is quantified by liquid scintillation counting. […]
The reaction in a sample is terminated by addition of 400 μl chloroform:methanol (1:1 v/v) and cooling on ice, followed by 10 min centrifugation at low speed, where after 100 μl of the upper phase is extracted and the radio-labeled product ethanolamine formed is quantified by liquid scintillation counting. In another set of experiments the following assay conditions are adjusted—in order to be identical to those of the ceramidase assay (see example 1B)—by using 25 μg of protein from rat intestinal (jejunum) homogenate in a total volume of 100 μl, 50 μM of ^3H-oleoylethanolamide (OEA; 25.000 dpm) or ^3H-anandamide (AEA; 25.000 dpm), 100 mM citrate phosphate (7.0), 8 mM CHAPS. […] Incubation at 37° C. is carried out for 0 and 20 min after establishment of linearity of product formation within this time frame. […]

For the next test, the system named is ceramidase. In words: Ceramide hydrolysis in rat intestinal homogenate. In kind it is biochemical. As to conditions: for inhibition of ceramide hydrolysis: pH 7.0, 50 μM 14C-octanoyl-D-sphingosine, 25 μg protein, 20 min, inhibitor concentration not given ('same concentration'). How it is done: Enzymatic hydrolysis of ceramide is measured in an assay containing 5-500 μg of intestinal protein incubated with 1-5000 μM of ^14C-ceramide [(N-[1-^14C]acyl-D-erythro sphingosine (with the acyl group being from six to twenty carbon atoms) and dilutions thereof with non-radioactive ceramide to obtain a specific activity of 0.1-100,000 dpm/pmol], which is sonicated in buffer or added in 5-50 μl of ethanol, to a total volume of 50-500 μl of 10-100 mM buffer (pH 3-11) initially utilizing 100 mM Tris-HCl (pH 8.0) containing 0-100 mM CHAPS, 0-10 mM DTT, 0-1% Nonidet P-40, 0-5 mg/ml of bovine serum albumin, and 0-500 mM NaCl with or without addition of D-erythro-MAPP (or a related compound; dissolved 1-10 μl ethanol) in a final concentration of 0.0001-1000 μM (1-10 μl ethanol is added to control assays). Incubations are carried out at 37° C. for 0-120 min and samples are withdrawn at 2-3 time points. The reaction in each sample is terminated by addition of 200-1000 μl of methanol:chloroform:heptane (28:25:20 v/v/v) and 50-400 μl of potassium carbonate buffer (pH 10). After mixing, the samples are centrifuged 1-20 min at low speed centrifugation and 50-400 μl of the upper phase is extracted and the radio-labeled product, free fatty acid, in the upper phase is quantified by liquid scintillation counting. From selected samples, another 50-400 μl aliquot of the upper phase as well as 50-400 μl of the lower phase are evaporated to dryness under a stream of nitrogen, re-dissolved in 10-200 μl of chloroform:methanol (19:1 v/v) and applied on thin-layer chromatography plates, eluted in chloroform:methanol:acetic acid (94:1:5 v/v/v) followed by quantification of the distribution of the radiolabeled free fatty acid in the two phases using a Phosphorlmager scanner (STORM; Molecular Dynamics, Sunnyvale, Calif., USA) and ImageQuant software (GE Health Care, Amersham, United Kingdom). The distribution of released fatty acid is used to calculate the total amount of product formed in each sample. […]

Another test deals with dietary obese mice. In words: Sub-chronic food intake, water intake and body weight study in dietary obese mice. In kind it is in vivo. Particulars: for cumulative food intake: D-threo-NMAPPD 30 mg/kg, OEA 2 mg/kg, or both mixed, high-fat diet, mean±SEM. The protocol:
Food intake studies are performed with male Sprague-Dawley rats (250-350 g) or male C57BL/6J mice (Charles River, Sulzfeld, Germany). […] These animals are left on the diet for 12 weeks before the experiment is commenced. The animals are group randomized into weight-matched groups of n=4-12 to receive up to four administrations (0.1-10 ml/kg p.o., i.p., s.c., or i.v.) of a test compound (e.g. MAPP or NMAPPD) or vehicle (saline optionally with Tween 80, polyethylene glycol, DMSO, ethanol, Cremophor excipient) with at least seven days interval. All compounds are administered just prior to the beginning of the dark period optionally after a 24 h fasting period. Food intake (digital balance) and water intake (registered gravimetrically or by means of lick counts) and activity (consecutive beam breaks) are monitored for at least 12 hours following the time of injection. After the treatment, the animals are euthanized by use of CO2 followed by decapitation.
3C. Furthermore, a study with dietary obese mice was carried out. After 12 weeks on high-fat diet, animals were stratified according to weight. At day −3, animals were randomised in 5 groups (n=9-10 in each group) to participate in one of following drug treatment groups; vehicle (5% Tween 80, 5% polyethylene glycol, 90% saline), OEA 2 mg/kg, OEA 5 mg/kg, D-threo-NMAPPD 30 mg/kg, D-threo-NMAPPD 30 mg/kg+OEA 2 mg/kg (mixed). The animals received one intraperitoneal injection daily (2 ml/kg) of vehicle or drug(s) suspended in vehicle at […]. The experiment was preceded by a 3 day run-in period with mock injections and handling to habituate the animals to the injection paradigm. On day 0 the animals were dosed for the first time. All animals were fed high-fat diet ad lib—also during the treatment period. Body weight, food and water intake was measured every other day for the following 14 days depending on the animal's state.

In another test the test system is diet-induced obese mice. As to conditions: 5 mg/kg OEA i.p. daily, from day 2 and on, refs (9,22); cited from earlier work.
Another test relates to diet-induced obese rats. Particulars: 5 mg/kg OEA i.p. daily, from day 2 and on, refs (9,22); cited from earlier work.

For `CCCCCCCCCCCCCC(=O)N[C@H](C)[C@@H](O)c1ccccc1` [D-erythro-MAPP, (1S,2R) D-erythro-N-myristoyl-2-amino-1-phenyl-propanol], the “inhibition of OEA hydrolysis” value in test [1] (25 μg protein) is recorded as 11%. Also, in test [1] (pH 7.0, 50 μM 3H-anandamide, inhibitor concentration not clearly printed), the “effect on AEA hydrolysis” value was “unaffected”. For the same compound, the “inhibition of ceramide hydrolysis” value in the test on ceramidase was “approximately 24%”.
Consider `CCCCCCCCCCCCCC(=O)N[C@H](CO)[C@H](O)c1ccc([N+](=O)[O-])cc1` [D-threo-NMAPPD, (1R,2R) D-threo-N-myristoyl-2-amino-1-(4′-nitrophenyl)-1,3-propandiol], for which the “inhibition of OEA hydrolysis” value in test [1] (25 μg protein) is given as 30%. Also, the “dose dependence of inhibition of OEA hydrolysis” value in test [1] (pH 7.0, increasing concentrations (FIG. 2C)) is reported as “dose-dependent inhibition”. Moreover, the “inhibition of ceramide hydrolysis” value in the test on ceramidase stood at 30%. In addition, in the test with dietary obese mice (D-threo-NMAPPD 30 mg/kg i.p. daily (alone and with OEA 2 mg/kg), from day 1), the “food intake versus vehicle” value is “consistently and significantly reduced”. Moreover, the “water intake versus vehicle” value with dietary obese mice (daily i.p., D-threo-NMAPPD 30 mg/kg at day 1 and day 12, or with OEA 2 mg/kg (FIG. 4B)) is “significant decreased water intake”. Besides, the “loss of body weight” value with dietary obese mice (day 12, daily i.p., D-threo-NMAPPD 30 mg/kg alone or with OEA 2 mg/kg, vehicle 3.7%) worked out at 8.9%. In the test on dietary obese mice (day 12, daily i.p.), this compound registered a cumulative food intake of 20.4 ± 1.2 g.
For the compound `CCCCCCCC/C=C\CCCCCCCC(=O)NCCO` [OEA, oleoylethanolamide, reference compound], the “food intake versus vehicle” value in the test with dietary obese mice (OEA 2 mg/kg i.p. daily, day 12) was “not significantly different”; with dietary obese mice (OEA 5 mg/kg i.p. daily, day 5 and 7), “significantly reduced food intake”. This compound gave a cumulative food intake with dietary obese mice (day 12, daily i.p.) of 23.3 ± 1.0 g. In addition, the body weight change result with diet-induced obese mice and in the test with diet-induced obese rats was “reduced body weight change” throughout.
As to `NC(=O)c1cccc(-c2cccc(OC(=O)NC3CCCCC3)c2)c1` [URB597, cyclohexyl carbamic acid 3′-carbamoyl-biphenyl-3-yl ester, reference compound], in test [1] (10 μM URB597, pH 5.5 to pH 10.5 (FIG. 3C)), the “effect on hydrolysis of OEA and AEA over pH range” value is “to varying degrees were inhibited”. Further, the “inhibition of acylethanolamide hydrolysis” value in test [1] (10 μM inhibitor, pH 7.0, 50 μM substrate, 25 μg protein, 20 min 37° C. (FIG. 2A)) is “approximately 79%”. Besides, the “effect on ceramide hydrolysis over pH range” value in the test on ceramidase (10 μM URB597, pH profile (FIG. 3C)) is reported as “completely unaffected”.
